{"source": "patent US20240382475A1", "about": "“Quinazoline Derivative, Or Preparation Method Therefor And Use Thereof” (Zhejiang Hisun Pharmaceutical Co., Ltd., priority 2021, published 2024)", "assay": "Pharmacokinetic evaluation in ICR mice", "assay_type": "in vivo", "details": "male, mouse, plasma, PO 10 mg/kg", "text": "ICR normal mice were used as test animals, and LC/MS/MS was used to determine the drug concentrations at different moments in plasma of ICR mice by intragastric administration. The pharmacokinetic behavior of the compounds of the present invention in ICR mice was studied to evaluate the pharmacokinetic characteristics of the above compounds.\nCompound 4, Compound 26 and Compound 32.\nICR mice, male, 27.8-38 g, were purchased from Zhejiang Vital River Laboratory Animal Technology Co., Ltd.\nAn appropriate amount of the compound was weighed, and DMA:30% Solutol HS-15:Saline=5:5:90 (v/v/v) was used as the solvent to prepare a fully dissolved solution, and then administered to obtain a 1 mg/mL colorless solution.\nThe ICR mice in the intragastric group of each compound to be tested (nine mice in each group) were fasted overnight followed by intragastric administration (administration dosage was 10 mg/kg and the administration volume was 10 mL/kg), and ate 4 hours after administration.\n0.1 mL of blood was collected via orbit before administration and 0.25 hour, 0.5 hour, 1 hour, 2 hours, 4 hours, 8 hours, 12 hours, and 24 hours after administration, and placed in EDTA-K2 anticoagulant tubes. The collected blood samples were placed on ice, and plasma was separated by centrifugation (centrifugation condition: 1500 g, 10 minutes). The collected plasma samples were stored at −40˜−20° C. before analysis.\nLC-MS/MS was used to determine the content of the compound to be tested in mouse plasma after intragastric administration."}
{"smiles": "COc1cc2nc(C)nc(N[C@H](C)c3cccc(C#N)c3C)c2cc1N1CCC2(CCOCC2)CC1", "note": "[Compound 4, (R)-3-(1-((7-methoxy-2-methyl-6-(3-oxa-9-azaspiro[5.5]undecan-9-yl)quinazolin-4-yl)amino)ethyl)-2-methylbenzonitrile]", "values": [{"measurement": "AUC(0-t)", "setting": "read-out: Area under curve AUC0-t", "result": 5.82, "unit": "µg·h/mL"}, {"measurement": "half-life", "setting": "read-out: Half-life T1/2 (converted)", "result": 51, "unit": "min"}, {"measurement": "Cmax", "setting": "read-out: Plasma concentration Cmax", "result": 2.31, "unit": "µg/mL"}]}
